From the NIST ThermoML archive (doi:10.1016/j.jct.2016.12.006)
Numbers after ± are expanded uncertainties.

experiment: refractive index (Na D-line) (dimensionless); details: 303.15 K; 101.33 kPa; Liquid; Standard Abbe refractometry

Row | refractive index | Compound
1 | 1.3701 ± 0.004 | CC(=O)OC(C)C [1-methylethyl ethanoate]
2 | 1.3196 ± 0.004 | OCC(F)(F)C(F)F [2,2,3,3-tetrafluoro-1-propanol]
3 | 1.3675 ± 0.004 | CCOC(C)=O [ethyl acetate]
